Experimental data reported in patent US20260199426A1, “CYCLIC LIPOPEPTIDE ANTIBIOTIC COMPOUNDS FOR USE IN THE TREATMENT OF PROTEIN AGGREGATION DISEASE” (DEUTSCHES ZENTRUM FÜR NEURODEGENERATIVE ERKRANKUNGEN E. V., priority 2022, published 2026).
*1 amine or outer side, *2 acyl side, *3 side chain or, on linkers, in order; H or OH if unused. Where a SMILES comes first, the peptide text is derived from it. Bridges are numbered along the chain shown (N, C = ends). [ ]: non-standard residue; d: D form. The star is where a group is joined. ξ: configuration not given here. X2 = O=C(C(N[*:1])c1ccc(OC2OC(CO)C(O)C(O)C2OC2OC(CO)C(O)C(O)C2O)cc1)[*:2]; Undeca(2Z,4E)dienoyl(10-Me) = CC(C)CCCC/C=C/C=C\C(=O)*; Octa(2Z,4E)dienoyl(7-Me) = CC(C)C/C=C/C=C\C(=O)*; X5 = O=C(C(N[*:1])c1cc(Cl)c(O)c(Cl)c1)[*:2]; ξPhg(3-Cl-4-OH) = NC(C(=O)O)c1ccc(O)c(Cl)c1; X1 = NC(=O)C(O[*:3])C(N[*:1])C(=O)[*:2]; X4 = N=C1NCC(CC(N[*:1])C(=O)[*:2])N1; Hpg = N[CH](C(=O)O)c1ccc(O)cc1; X3 = CCC(C)CCCC/C=C/C=C\C(=O)*; Cit = NC(=O)NCCC[CH](N)C(=O)O; Orn = NCCC[CH](N)C(=O)O; X6 = Cc1ccccc1CC(=O)*

Legend:
[1] = test system: Tau aggregation in HEK biosensor cells (TauRD^LM-GFP); conditions: induced by cell lysate containing Tau aggregates; 0.25 μM to 40 μM, 22 h, lipofectamine
[2] = target: N-terminally acetylated alpha-synuclein (Asyn) (Homo sapiens, UniProt P37840); assay: Seeded α-synuclein aggregation assay (ThT fluorescence, TEM); assay type: biochemical; conditions: for in vitro aggregation of alpha-synuclein (ThT fluorescence): 3-fold excess of compound, 25 μM Asyn monomers, 1% (v/v) fibril seeds, 37° C.; for Asyn oligomer formation (TEM) / Asyn fibril morphology (TEM): compound/Asyn mixtures
Method: (§1) (A, B) Thioflavin-T (ThT) fluorescence curves of N-terminally acetylated alpha-synuclein (Asyn) in the absence (cross) and presence of a 3-fold excess (white circles) of compound. […] Quantitative analysis of Asyn aggregation kinetics was performed by nonlinear regression with sigmoidal fitting to determine the midpoint value (Tm) of the fluorescence curve as well as the fluorescence span. Unpaired two-tailed t-test was performed to test the null hypothesis (p≤0.0332(*), p≤0.002(**), p≤0.0002 (***), p≤0.0001 (****)). […] (C) TEM imaging analysis of the compound/Asyn mixtures. Scale bars correspond to 200 nm.
as §1, with “ThT” for “Thioflavin-T (ThT)”, “circles or triangles)” for “circles)”
(A) ThT fluorescence curves of N-terminally acetylated alpha-synuclein (Asyn) in the absence (cross) and presence of a 3-fold excess (white circles) of compound. […] Quantitative analysis of Asyn aggregation kinetics was performed by nonlinear regression with sigmoidal fitting to determine the midpoint value (Tm) of the fluorescence curve as well as the fluorescence span.
Asyn protein stock solutions were prepared in 50 mM HEPES at pH 7.4 with 100 mM NaCl. Stocks of compounds were prepared in the same buffer (500 μM) or as 10 mM compound in DMSO. […] The microplate was likewise subjected to the incubation and fluorescence measurement program used in in vitro assay 1. After about 2-4 days of incubation, ThT fluorescence emission reached the maximal value and the Asyn fibril-containing mixture was collected as “fibril seed” mixture for subsequent Asyn aggregation experiments.

[3] = target: bovine serum albumin (BSA) (Bos taurus, UniProt P02769); conditions: Shivani A et al. 2020; cited from earlier work
[4] = target: T1, amylin (human islet amyloid polypeptide or hIAPP) (Homo sapiens, UniProt P10997); assay: Amylin aggregation assay (ThT); assay type: biochemical; conditions: 5 μM hIAPP monomers, various doses, 37° C.
T1 construct: 5 μM amylin (human islet amyloid polypeptide or hIAPP) monomers
T1 sequence (P10997 34-70 limits assumed): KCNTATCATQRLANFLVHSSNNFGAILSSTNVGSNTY

Sequence of bovine serum albumin (BSA) (P02769 25-607): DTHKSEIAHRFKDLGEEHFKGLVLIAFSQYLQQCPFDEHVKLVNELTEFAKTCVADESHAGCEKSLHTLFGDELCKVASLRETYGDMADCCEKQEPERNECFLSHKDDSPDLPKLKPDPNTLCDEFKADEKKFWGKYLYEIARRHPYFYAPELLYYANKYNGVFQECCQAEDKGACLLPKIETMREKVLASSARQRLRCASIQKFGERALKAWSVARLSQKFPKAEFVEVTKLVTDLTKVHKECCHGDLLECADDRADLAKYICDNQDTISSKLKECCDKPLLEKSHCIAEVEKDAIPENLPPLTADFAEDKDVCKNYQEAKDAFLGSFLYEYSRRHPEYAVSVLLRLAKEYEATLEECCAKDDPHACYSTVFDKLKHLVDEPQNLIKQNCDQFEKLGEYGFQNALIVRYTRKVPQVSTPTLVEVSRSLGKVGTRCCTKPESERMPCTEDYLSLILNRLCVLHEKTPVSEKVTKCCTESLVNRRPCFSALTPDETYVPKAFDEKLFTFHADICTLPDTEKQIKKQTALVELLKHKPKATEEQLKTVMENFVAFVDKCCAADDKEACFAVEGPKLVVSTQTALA

Compound | inhibition of seeded Tau aggregation [1] | in vitro aggregation of alpha-synuclein (ThT fluorescence) [2] | Asyn oligomer formation (TEM) [2] | aggregation of bovine serum albumin (BSA) [3] | Asyn fibril morphology (TEM) [2] | in vitro aggregation of amylin (final ThT fluorescence, t=50 h) [4]
CNC(CC(C)C)C(=O)NC1C(=O)NC(CC(N)=O)C(=O)NC2C(=O)NC3C(=O)NC(C(=O)NC(C(=O)O)c4cc(O)cc(O)c4-c4cc3ccc4O)C(O)c3ccc(c(Cl)c3)Oc3cc2cc(c3OC2OC(CO)C(O)C(O)C2OC2CC(C)(N)C(O)C(C)O2)Oc2ccc(cc2Cl)C1O (stereo not drawn) [Vancomycin, reference compound] | showed inhibition of seeded Tau aggregation | – | – | – | – | –
Teicoplanin [reference compound] | showed inhibition of seeded Tau aggregation | inhibits the in vitro aggregation | Asyn oligomer formation competes with Asyn fibril formation | inhibition of the aggregation | – | –
CC(C)CCCC/C=C/C=C\C(=O)NC(CC(=O)O)C(=O)NC1C(=O)NC(c2ccc(O)cc2)C(=O)NC(CCCN)C(=O)NC(C(C)O)C(=O)NC(c2ccc(O)cc2)C(=O)NC(c2ccc(O)cc2)C(=O)NC(C(C)O)C(=O)NC(CCCNC(N)=O)C(=O)NC(CC2CNC(=N)N2)C(=O)NC(c2ccc(O)cc2)C(=O)NC(CO)C(=O)NC(c2cc(Cl)c(O)c(Cl)c2)C(=O)NCC(=O)NC(CC2CNC(=N)N2)C(=O)NC(C)C(=O)NC(c2ccc(O)cc2)C(=O)OC1C (stereo not drawn) [Enduracidin A] ({Undeca(2Z,4E)dienoyl(10-Me)}-DT[Hpg][Orn]T[Hpg][Hpg]T[Cit][X4][Hpg]S[X5]G[X4]A[Hpg]; ester 2-C; configuration not given here) | showed inhibition of seeded Tau aggregation | inhibit the in vitro aggregation | – | – | shorter fibrils with a rougher surface | –
CC(C)C/C=C/C=C\C(=O)NC(CC(N)=O)C(=O)NC1C(=O)NC(c2ccc(O)cc2)C(=O)NC(CCCN)C(=O)NC(C(C)O)C(=O)NC(c2ccc(O)cc2)C(=O)NC(c2ccc(O)cc2)C(=O)NC(C(C)O)C(=O)NC(Cc2ccccc2)C(=O)NC(CCCN)C(=O)NC(c2ccc(O)cc2)C(=O)NC(C(C)O)C(=O)NC(c2ccc(O)cc2)C(=O)NCC(=O)NC(CC(C)C)C(=O)NC(C)C(=O)NC(c2ccc(O)c(Cl)c2)C(=O)OC1C(N)=O (stereo not drawn) [Ramoplanin A2 Aglycon, Ramoplanin aglycon] ({Octa(2Z,4E)dienoyl(7-Me)}-N[X1][Hpg][Orn]T[Hpg][Hpg]TF[Orn][Hpg]T[Hpg]GLA[ξPhg(3-Cl-4-OH)]; ester 2-C; configuration not given here) | – | inhibit the in vitro aggregation | favors the formation of Asyn oligomers | – | – | –
CCC(C)CCCC/C=C/C=C\C(=O)NC(CC(=O)O)C(=O)NC1C(=O)NC(c2ccc(O)cc2)C(=O)NC(CCCN)C(=O)NC(C(C)O)C(=O)NC(c2ccc(O)cc2)C(=O)NC(c2ccc(O)cc2)C(=O)NC(C(C)O)C(=O)NC(CCCNC(N)=O)C(=O)NC(CC2CNC(=N)N2)C(=O)NC(c2ccc(O)cc2)C(=O)NC(CO)C(=O)NC(c2cc(Cl)c(O)c(Cl)c2)C(=O)NCC(=O)NC(CC2CNC(=N)N2)C(=O)NC(C)C(=O)NC(c2ccc(O)cc2)C(=O)OC1C (stereo not drawn) [Enduracidin B] (X3-DT[Hpg][Orn]T[Hpg][Hpg]T[Cit][X4][Hpg]S[X5]G[X4]A[Hpg]; ester 2-C; configuration not given here) | – | inhibit the in vitro aggregation | Asyn oligomer formation also competes with Asyn fibril formation | – | shorter fibrils with a rougher surface | inhibit the in vitro aggregation of amylin
Cc1ccccc1CC(=O)NC(CC(N)=O)C(=O)NC1C(=O)NC(c2ccc(O)cc2)C(=O)NC(CCCN)C(=O)NC(C(C)O)C(=O)NC(c2ccc(O)cc2)C(=O)NC(c2ccc(O)cc2)C(=O)NC(C(C)O)C(=O)NC(Cc2ccccc2)C(=O)NC(CCCN)C(=O)NC(c2ccc(OC3OC(CO)C(O)C(O)C3OC3OC(CO)C(O)C(O)C3O)cc2)C(=O)NC(C(C)O)C(=O)NC(c2ccc(O)cc2)C(=O)NCC(=O)NC(CC(C)C)C(=O)NC(C)C(=O)NC(c2ccc(O)c(Cl)c2)C(=O)OC1C(N)=O (stereo not drawn) [NAI-603, Ramoplanin 2-methyl-phenyl derivative NAI-603] (X6-N[X1][Hpg][Orn]T[Hpg][Hpg]TF[Orn][X2]T[Hpg]GLA[ξPhg(3-Cl-4-OH)]; ester 2-C; configuration not given here) | – | – | – | – | – | inhibit the in vitro aggregation of amylin
